Laboratory results reported in US5442053A, “Salts and mixtures of hyaluronic acid with pharmaceutically active substances, pharmaceutical compositions containing the same and methods for administration of such compositions” (Fidia, S.p.A., priority 1983, dated 1995).

Legend:
staphylococcus aureus = assay: Recovery from dry inflammation in rabbit eye, staphylococcus aureus; type: in vivo
Description: (§1) Studies were carried out with hyaluronic acid salts of the antibiotics: streptomycin, erythromycin, neomycin and gentamicin. The salts utilized are the total salts in which all of the acid groups of hyaluronic acid are salified with a basic group of the antibiotic and prepared according to the procedures described hereinabove in Examples 1, 2, 4 and 5.
(§2) For administration, preparations were utilized comprising solutions of the HY drug complex in distilled water, having concentrations suitable to the antibiotic content:
(§3) The activity of the above HY salts was compared to that given by the same antibiotics dissolved in phosphate buffer and having the same concentrations of antibiotic. The activity of the two groups of products was measured on the basis of the time necessary to suppress a dry inflammation of the rabbit eye induced by a bacterial agent.
(§4) More precisely, the dry inflammation was determined in both eyes of 24 rabbits by intraocular injection of the titered suspension of one of the following bacterial groups: pseudomonas aeruginosa, staphylococcus aureus, salmonella typhi (0.1 ml). The various saline derivatives of the antibiotics were administered (3 drops every 6 hours) into the right eye (RE) of the rabbits, while into the left eye (LE) were instilled the corresponding quantities of the antibiotics dissolved in phosphate buffer. The treatment was begun immediately after injectin of the bacterial suspension and was continued until inflammation disappeared.
(§5) In particular the following were examined: the state of the conjuntiva and the corneal epithelium, anterior chamber (presence of the Tyndall effect), the state of the iris of the posterior segment of the eye. The state of the back of the eye was examined with a Goldman lens. The presence of signs of inflammation (hyperemia, exudates, cloudiness of the liquids etc.) was registered.

[1] = tested on: Bacillus subtillis ATCC 6633; assay: Antimicrobial activity of streptomycin sulphate vehicled in hyaluronic acid, agar diffusion; type: cell-based, Bacillus subtilis
Description: A solution of the two components (60 g hyaluronic acid sodium salt and 40 g streptomycin sulphate) was prepared and then freeze-dried.
The antimicrobial activity of the formulation of streptomycin in hyaluronic acid sodium salt, HYALASTINE fraction, was controlled by microbial assay by agar diffusion, based on the reading after a suitable period of incubation at 32° C., and on a comparison of the diameters of the microorganism's inhibition zones (Bacillus subtillis ATCC 6633) determined on the presumed concentrations of the antibiotic under examination and on the corresponding and known concentrations of the working standard.
After 18 hours of incubation of the assay plate at 32° C., it was observed that streptomycin vehicled in
The results (Table 11) were obtained by measuring the diameter of microbial inhibition zones at working concentrations of 20 and 5 UI/ml, and expressed in units of antimicrobial activity per miligram of the mixture compared to streptomycin sulphate.

pseudomonas aeruginosa = assay: Recovery from dry inflammation in rabbit eye, pseudomonas aeruginosa; type: in vivo
Description: as §1, §2, §3, §4, §5

rabbit eye = assay: Anti-inflammatory activity of triamcinolone vehicled in hyaluronic acid, dextran-induced intraocular inflammation; type: in vivo, rabbit (male New Zealand); conditions: for Evaluated Score, Conjunctiva / Evaluated Score, Cornea / Evaluated Score, Iris / Evaluated Score, Tyndall: score 0 to 3
Description: The experiments were carried out on male New Zealand rabbits (average weight 1.6 kg). After an adaption period of 5 days, introocular inflammation was induced in the rabbits by intraocular injection of dextran (10%, 0.1 ml). The administration was effected in both eyes under local anaesthetic with 4% Novesina, inserting the needle of the syringe at the edge of the cornea in the anterior chamber at a distance of 2 mm. The test was conducted on 10 animals.
Treatment was effected in each animal both in the right and left eyes, by instillation of 3 drops 3 times a day for 6 days in all, of the following:
a solution of triamcinolone (10% in saline) in the left eye (LE);
a solution of hyaluronic acid sodium salt, HYALECTIN fraction, (10 mg/ml)+triamcinolone phosphate (10%) in the right eye (RE).
The anti-inflammatory effect on the reaction induced by dextran was evaluated by observing the eye with a slit lamp at the following intervals: 0, 1 hr, 3 hr, 24 hr, 48 hr, 3 days, 4 days, 5 days and 6 days.
At the intervals, the eye examination evaluated the following observations:
the state of the cornea and conjunctiva for the possible presence of hypermia, edema, and especially observation of the iris which is normally sensitive to inflammatory processes after injection of inflammatory agents into the anterior chamber;
the Tyndall effect, in which the presence of opacity of varying intensity ("nubecula") is indicative of the presence of corpuscular (inflammatory) elements in the anterior chamber.
The result of the observation was expressed in terms of subjective scoring (from 0 to 3) related to the gradualness of the effect noted.

salmonella typhi = assay: Recovery from dry inflammation in rabbit eye, salmonella typhi; type: in vivo
Description: as §1, §2, §3, §4, §5

[2] = day 1, pseudomonas aeruginosa, 3 drops every 6 hours, 6 eyes

## CC[C@H]1OC(=O)[C@H](C)[C@@H](O[C@H]2C[C@@](C)(OC)[C@@H](O)[C@H](C)O2)[C@H](C)[C@@H](O[C@@H]2O[C@H](C)C[C@H](N(C)C)[C@H]2O)[C@](C)(O)C[C@@H](C)C(=O)[C@H](C)[C@@H](O)[C@]1(C)O [Erthromycin, erythromycin]
Staphylococcus aureus; day 1, staphylococcus aureus, 3 drops every 6 hours, 6 eyes
  percentage of eyes which did not present any signs of inflammation: 0.0%
Staphylococcus aureus; day 2, staphylococcus aureus
  percentage of eyes which did not present any signs of inflammation: 0.0%
Staphylococcus aureus; day 3, staphylococcus aureus
  percentage of eyes which did not present any signs of inflammation: 0.0%
Staphylococcus aureus; day 4, staphylococcus aureus
  percentage of eyes which did not present any signs of inflammation: 0.0%
Staphylococcus aureus; day 5, staphylococcus aureus
  percentage of eyes which did not present any signs of inflammation: 0.0%
Staphylococcus aureus; day 6, staphylococcus aureus
  percentage of eyes which did not present any signs of inflammation: 0.0%
Staphylococcus aureus; day 7, staphylococcus aureus
  percentage of eyes which did not present any signs of inflammation: 16.6%
Staphylococcus aureus; day 8, staphylococcus aureus
  percentage of eyes which did not present any signs of inflammation: 33.3%

## [H]/N=C(/N)N[C@H]1[C@H](O)[C@@H](O)[C@H](O[C@@H]2O[C@@H](C)[C@](O)(C=O)[C@H]2O[C@@H]2O[C@@H](CO)[C@H](O)[C@@H](O)[C@@H]2NC)[C@@H](N/C(N)=N\[H])[C@@H]1O [Streptomycin sulphate, streptomycin sulphate]
[1]
  antimicrobial activity, Theoretical: 750 UI/MG
[1]; 18 hours, 32° C., 20 and 5 UI/ml
  antimicrobial activity, Effective: 750 UI/MG
[1]; values in parenthesis
  antimicrobial activity, Effective (as streptomycin sulphate content): 1000 mg/gr
  antimicrobial activity, Theoretical (as streptomycin sulphate content): 1000 mg/gr

## [H]/N=C(/N)N[C@H]1[C@H](O)[C@@H](O)[C@H](O[C@@H]2O[C@@H](C)[C@](O)(C=O)[C@H]2O[C@@H]2O[C@@H](CO)[C@H](O)[C@@H](O)[C@@H]2NC)[C@@H](N/C(N)=N\[H])[C@@H]1O [Streptomycin, streptomycin]
Pseudomonas aeruginosa; [2]
  percentage of eyes which did not present any signs of inflammation: 0.0%
Pseudomonas aeruginosa; day 2, pseudomonas aeruginosa
  percentage of eyes which did not present any signs of inflammation: 0.0%
Pseudomonas aeruginosa; day 3, pseudomonas aeruginosa
  percentage of eyes which did not present any signs of inflammation: 0.0%
Pseudomonas aeruginosa; day 4, pseudomonas aeruginosa
  percentage of eyes which did not present any signs of inflammation: 0.0%
Pseudomonas aeruginosa; day 5, pseudomonas aeruginosa
  percentage of eyes which did not present any signs of inflammation: 0.0%
Pseudomonas aeruginosa; day 6, pseudomonas aeruginosa
  percentage of eyes which did not present any signs of inflammation: 16.6%
Pseudomonas aeruginosa; day 7, pseudomonas aeruginosa
  percentage of eyes which did not present any signs of inflammation: 50.0%
Pseudomonas aeruginosa; day 8, pseudomonas aeruginosa
  percentage of eyes which did not present any signs of inflammation: 100.0%

## C[C@]12C=CC(=O)C=C1CC[C@H]1[C@@H]3C[C@@H](O)[C@](O)(C(=O)CO)[C@@]3(C)C[C@H](O)[C@@]12F [triamcinolone]
Rabbit eye; 0
  Evaluated Score, Conjunctiva: 0.0
  Evaluated Score, Cornea: 0.0
  Evaluated Score, Iris: 0.0
  Evaluated Score, Tyndall: 0.0
Rabbit eye; 1 hour
  Evaluated Score, Conjunctiva: 0.2
  Evaluated Score, Cornea: 1.0
  Evaluated Score, Iris: 0.5
  Evaluated Score, Tyndall: 1.0
Rabbit eye; 3 hours
  Evaluated Score, Conjunctiva: 0.0
  Evaluated Score, Cornea: 0.0
  Evaluated Score, Iris: 2.7
  Evaluated Score, Tyndall: 3.0
Rabbit eye; 24 hours
  Evaluated Score, Conjunctiva: 0.0
  Evaluated Score, Cornea: 0.1
  Evaluated Score, Iris: 3.0
  Evaluated Score, Tyndall: 3.0
Rabbit eye; 48 hours
  Evaluated Score, Conjunctiva: 0.0
  Evaluated Score, Cornea: 0.0
  Evaluated Score, Iris: 3.0
  Evaluated Score, Tyndall: 3.0
Rabbit eye; 3 days
  Evaluated Score, Conjunctiva: 0.0
  Evaluated Score, Cornea: 0.0
  Evaluated Score, Iris: 3.0
  Evaluated Score, Tyndall: 3.0
Rabbit eye; 4 days
  Evaluated Score, Conjunctiva: 0.0
  Evaluated Score, Cornea: 0.0
  Evaluated Score, Iris: 2.4
  Evaluated Score, Tyndall: 2.2
Rabbit eye; 5 days
  Evaluated Score, Conjunctiva: 0.0
  Evaluated Score, Cornea: 0.0
  Evaluated Score, Iris: 1.5
  Evaluated Score, Tyndall: 1.2
Rabbit eye; 6 days
  Evaluated Score, Conjunctiva: 0.0
  Evaluated Score, Cornea: 0.0
  Evaluated Score, Iris: 0.5
  Evaluated Score, Tyndall: 0.4
Rabbit eye; dextran-induced intraocular inflammation
  anti-inflammatory effect (in words): almost normal conditions are restored, with perfect limpidness of the eye by the 6th day

## gentamicin [Gentamycin]
Pseudomonas aeruginosa; [2]
  percentage of eyes which did not present any signs of inflammation: 0.0%
Pseudomonas aeruginosa; day 2, pseudomonas aeruginosa
  percentage of eyes which did not present any signs of inflammation: 0.0%
Pseudomonas aeruginosa; day 3, pseudomonas aeruginosa
  percentage of eyes which did not present any signs of inflammation: 0.0%
Pseudomonas aeruginosa; day 4, pseudomonas aeruginosa
  percentage of eyes which did not present any signs of inflammation: 0.0%
Pseudomonas aeruginosa; day 5, pseudomonas aeruginosa
  percentage of eyes which did not present any signs of inflammation: 0.0%
Pseudomonas aeruginosa; day 6, pseudomonas aeruginosa
  percentage of eyes which did not present any signs of inflammation: 33.3%
Pseudomonas aeruginosa; day 7, pseudomonas aeruginosa
  percentage of eyes which did not present any signs of inflammation: 50.0%
Pseudomonas aeruginosa; day 8, pseudomonas aeruginosa
  percentage of eyes which did not present any signs of inflammation: 100.0%

## neomycin
Salmonella typhi; day 1, salmonella typhi, 3 drops every 6 hours, 6 eyes
  percentage of eyes which did not present any signs of inflammation: 0.0%
Salmonella typhi; day 2, salmonella typhi
  percentage of eyes which did not present any signs of inflammation: 0.0%
Salmonella typhi; day 3, salmonella typhi
  percentage of eyes which did not present any signs of inflammation: 0.0%
Salmonella typhi; day 4, salmonella typhi
  percentage of eyes which did not present any signs of inflammation: 0.0%
Salmonella typhi; day 5, salmonella typhi
  percentage of eyes which did not present any signs of inflammation: 0.0%
Salmonella typhi; day 6, salmonella typhi
  percentage of eyes which did not present any signs of inflammation: 0.0%
Salmonella typhi; day 7, salmonella typhi
  percentage of eyes which did not present any signs of inflammation: 16.6%
Salmonella typhi; day 8, salmonella typhi
  percentage of eyes which did not present any signs of inflammation: 33.3%
